In paper PMC4086246 (Journal of cellular biochemistry, 2014):
Numbering of substitutions follows the chain as printed. pIC50: −log10 of the molar value.

Assays:
ABCG2 [1] = molecular target: T1, ABCG2 (Homo sapiens, UniProt Q9UNQ0); experiment: inhibition of […]-IAAP photoaffinity labeling in membranes; format: binding
T1 sequence (Q9UNQ0 1-655): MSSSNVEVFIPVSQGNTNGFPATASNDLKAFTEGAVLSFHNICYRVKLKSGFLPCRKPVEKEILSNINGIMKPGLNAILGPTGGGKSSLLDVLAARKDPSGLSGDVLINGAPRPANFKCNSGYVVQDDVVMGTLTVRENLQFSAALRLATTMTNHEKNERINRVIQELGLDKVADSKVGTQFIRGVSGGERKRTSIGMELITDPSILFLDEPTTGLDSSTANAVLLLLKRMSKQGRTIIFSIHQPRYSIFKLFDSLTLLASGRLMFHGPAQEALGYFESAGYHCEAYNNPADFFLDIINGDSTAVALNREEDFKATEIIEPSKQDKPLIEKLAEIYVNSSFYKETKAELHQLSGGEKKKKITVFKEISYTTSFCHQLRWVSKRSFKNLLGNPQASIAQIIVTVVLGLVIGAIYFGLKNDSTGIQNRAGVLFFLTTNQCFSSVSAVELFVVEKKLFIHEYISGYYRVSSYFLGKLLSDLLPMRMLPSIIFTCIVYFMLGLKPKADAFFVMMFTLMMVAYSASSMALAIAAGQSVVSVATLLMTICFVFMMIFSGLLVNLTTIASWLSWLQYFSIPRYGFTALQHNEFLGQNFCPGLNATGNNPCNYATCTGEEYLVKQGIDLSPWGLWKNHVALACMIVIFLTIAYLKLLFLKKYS

ABCG2 [2] = molecular target: T2, ABCG2 (Homo sapiens, UniProt Q9UNQ0, R482T); experiment: [3H]-mitoxantrone accumulation in transfected cells; format: cell-based
T2 sequence (Q9UNQ0 1-655 R482T): T1 sequence (Q9UNQ0 1-655) with R482T

ABCG2 [3] = molecular target: T3, ABCG2 (Homo sapiens, UniProt Q9UNQ0, R482G); experiment: as above; format: cell-based
T3 sequence (Q9UNQ0 1-655 R482G): T1 sequence (Q9UNQ0 1-655) with R482G

- pIC50 (ABCG2 [1]): 5.43
Structure (SMILES): C[C@@H]1COC(Nc2ccc3ncnc(Nc4ccc(OCc5nccs5)c(Cl)c4)c3c2)=N1 [ARRY-334543]
- [3H]-mitoxantrone accumulation in transfected cells (0.25 and 1.0 μM) (ABCG2 [2]): significantly increased intracellular levels of [^3H]-MX in the NCI-H460, NCI-H460/MX20, ABCG2-482-R2, ABCG2-482-G2, and ABCG2-482-T7 cells
- [3H]-mitoxantrone accumulation in transfected cells (0.25 and 1.0 μM) (ABCG2 [3]): significantly increased intracellular levels of [^3H]-MX in the NCI-H460, NCI-H460/MX20, ABCG2-482-R2, ABCG2-482-G2, and ABCG2-482-T7 cells
